Assay results reported in patent EP0402852A1, “Irreversible bombesin antagonists” (priority 1989, dated 1990).
Where two headings read alike, the source gives them in different places. Starred links: 1 amine or outer side, 2 acyl side, 3 side chain; linkers in the order of their positions; H or OH if unused. Non-standard residues stand in square brackets, D forms with d. Residues, ends and D or L forms follow the SMILES beside them. *: point of attachment. X2 = CC(C)C[C@@H](CN[C@@H](CC(C)C)C(N)=O)N*; Carbamoyl(2-ClEt,NO) = O=NN(CCCl)C(=O)*; X1 = O=C(c1ccc(N(CCCl)CCCl)cc1)*; pGlu = O=C1CC[C@@H](C(=O)O)N1; Suc = O=C(CCC(=O)[*:2])[*:1]; Nle = CCCC[C@H](N)C(=O)O; CH2Cl = ClC*

Columns and labels:
[1] = test system: p115 protein associated with the bombesin receptor; assay: Phosphorylation of the p115 protein (activation of protein-tyrosin kinase); format: cell-based
Experimental: Mitogenic effect of bombesin and its analogues were also evaluated as activation of the protein-tyrosin kinase that phosphorylates a 115 KD protein (p115) associated with the bombesin receptor complex (D. Cirillo et al. (1986) Mol.Cell. Biol. 6, 4641- 4649) (Table 3). In addition, exposure to these peptides in the 0.1-50 µM range was associated with significant reduction in the growth of SCLC cell lines (such as NCI-H345, NCI-N592, NCI-H128), as well as of prostatic carcinoma cell lines (such as DU145 and PC3).

[2] = test system: mouse Swiss 3T3 fibroblasts; assay: Mitogenesis: [H³]thymidine incorporation in quiescent, confluent Swiss 3T3 cells; format: cell-based; conditions: for FOLD INCREASE OVER BASAL VALUE: [H³]thymidine incorporation, compound alone
Experimental: The effect on mitogenesis was determined in quiescent and confluent Swiss 3T3 cells maintained in serum free medium (A.N.Corps et al (1985) Biochem J. 231, 781-785). In a first set of experiments, analogues are given alone or in combination with bombesin. In a second set of experiments, cells are pre-treated with the alkylating peptides, washed, left at 37°C for 24 hours and then challenged with bombesin. In both cases, DNA synthesis was evaluated as [H³]thymidine incorporation (Table 2).

bombesin receptors = molecular target: T1, bombesin receptors (Mus musculus, UniProt P21729); assay: Binding affinity for the bombesin receptors on mouse Swiss 3T3 fibroblasts
T1 construct: bombesin receptors was determined on mouse Swiss 3T3 fibroblasts; endogenous in cells; host or cells: mouse Swiss 3T3 fibroblasts
T1 sequence (P21729 whole entry): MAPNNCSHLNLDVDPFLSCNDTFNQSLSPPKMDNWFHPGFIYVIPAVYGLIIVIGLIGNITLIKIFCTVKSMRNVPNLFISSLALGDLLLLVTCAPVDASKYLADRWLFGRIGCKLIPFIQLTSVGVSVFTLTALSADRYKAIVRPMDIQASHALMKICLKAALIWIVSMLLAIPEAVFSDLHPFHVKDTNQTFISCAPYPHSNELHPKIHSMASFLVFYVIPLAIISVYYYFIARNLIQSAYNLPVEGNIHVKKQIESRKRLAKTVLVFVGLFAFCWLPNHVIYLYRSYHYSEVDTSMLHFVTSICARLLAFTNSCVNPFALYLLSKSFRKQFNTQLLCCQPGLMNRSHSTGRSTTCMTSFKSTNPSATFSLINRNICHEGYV
Experimental: The binding affinity of the compounds of the present invention for the bombesin receptors was determined on mouse Swiss 3T3 fibroblasts (I. Zachary and E. Rozengurt (1985) Proc. Natl. Acad. Sci. USA, 82, 7616-7620) (Table 1).

[3] = binding affinity on mouse Swiss 3T3 fibroblasts
[4] = binding affinity on mouse Swiss 3T3 fibroblasts, read-out: ID₅₀

4-(ClCH₂CH₂)₂NC₆H₄CO-Thr-Gln-Trp-Ala-Val-Gly-His(Dnp)-Leu-Met-NH₂ (TQWAVGH; N-mustard benzoyl; His(Dnp)-Leu-Met-NH2; printed: Thr-Gln-Trp-Ala-Val-Gly-His) [III]
MINIMAL ACTIVE DOSE [1]: 500 nM | % INHIBITION IN THE PRESENCE OF 25nM BBS ([2]; A: analogues given in combination with BBS, 0.5µM): 0% | % INHIBITION IN THE PRESENCE OF 25nM BBS ([2]; A: analogues given in combination with BBS, 5 µM): 0% | % INHIBITION IN THE PRESENCE OF 25nM BBS ([2]; B: cells pre-treated with analogues, washed, left at 37°C for 24 h, then challenged with BBS, 0.5µM): 51±11% | % INHIBITION IN THE PRESENCE OF 25nM BBS ([2]; B: cells pre-treated with analogues, washed, left at 37°C for 24 h, then challenged with BBS, 5 µM): 53+8% | FOLD INCREASE OVER BASAL VALUE ([2]; 0.5µM): 2.3 | FOLD INCREASE OVER BASAL VALUE ([2]; 5 µM): 3.4 | ID₅₀ (bombesin receptors; [3]): 1815 ± 330 nM

CSCC[C@H](NC(=O)[C@H](CC(C)C)NC(=O)CNC(=O)[C@@H](NC(=O)[C@H](C)NC(=O)[C@H](Cc1c[nH]c2ccccc12)NC(=O)[C@H](CCC(N)=O)NC(=O)[C@@H](NC(=O)c1ccc(N(CCCl)CCCl)cc1)[C@@H](C)O)C(C)C)C(N)=O [I, 4-(ClCH₂CH₂)₂NC₆H₄CO-Thr-Gln-Trp-Ala-Val-Gly-Leu-Met-NH₂] (X1-TQWAVGLM-NH2)
IC50 (bombesin receptors): 1360 ± 266 nM

CCCC[C@H](NC(=O)[C@H](CC(C)C)NC(=O)CNC(=O)[C@@H](NC(=O)[C@H](C)NC(=O)[C@H](Cc1c[nH]c2ccccc12)NC(=O)[C@H](CCC(N)=O)NC(=O)[C@@H](NC(=O)c1ccc(N(CCCl)CCCl)cc1)[C@@H](C)O)C(C)C)C(N)=O [II, 4-(ClC₂CH₂)₂NC₆H₄CO-Thr-Gln-Trp-Ala-Val-Gly-Leu-Nle-NH₂] (X1-TQWAVGL[Nle]-NH2)
IC50 (bombesin receptors): 438 ± 111 nM

CSCC[C@H](NC(=O)[C@H](CC(C)C)NC(=O)[C@H](Cc1c[nH]cn1)NC(=O)CNC(=O)[C@@H](NC(=O)[C@H](C)NC(=O)[C@H](Cc1c[nH]c2ccccc12)NC(=O)[C@H](CCC(N)=O)NC(=O)[C@@H](NC(=O)c1ccc(N(CCCl)CCCl)cc1)[C@@H](C)O)C(C)C)C(N)=O [IV, 4-(ClCH₂CH₂)₂NC₆H₄CO-Thr-Gln-Trp-Ala-Val-Gly-His-Leu-Met-NH₂]
IC50 (bombesin receptors): 0.7 ± 0.2 nM

CCCC[C@H](NC(=O)[C@H](CC(C)C)NC(=O)CNC(=O)[C@@H](NC(=O)[C@H](C)NC(=O)[C@H](Cc1c[nH]c2ccccc12)NC(=O)[C@H](CCC(N)=O)NC(=O)[C@@H](NC(=O)N(CCCl)N=O)[C@@H](C)O)C(C)C)C(N)=O [V, ClCH₂CH₂N(NO)CO-Thr-Gln-Trp-Ala-Val-Gly-Leu-Nle-NH₂] ({Carbamoyl(2-ClEt,NO)}-TQWAVGL[Nle]-NH2)
IC50 (bombesin receptors): 1340 ± 199 nM

CCCC[C@H](NC(=O)CCC(=O)N[C@H](C(=O)N[C@@H](CCC(N)=O)C(=O)N[C@@H](Cc1c[nH]c2ccccc12)C(=O)N[C@@H](C)C(=O)N[C@H](C(=O)NCC(=O)N[C@@H](CC(C)C)C(=O)N[C@@H](CCSC)C(N)=O)C(C)C)[C@@H](C)O)C(=O)CCl [VI, CH₃(CH₂)₃CH(COCH₂Cl)NHCO(CH₂)₂CO-Thr-Gln-Trp-Ala-Val-Gly-Leu-Met-NH₂] ({CH2Cl-Nle-Suc}-TQWAVGLM-NH2)
IC50 (bombesin receptors; [4]): 648 ± 290 nM

CC(C)C[C@@H](CN[C@@H](CC(C)C)C(N)=O)NC(=O)[C@H](Cc1cnc[nH]1)NC(=O)CNC(=O)[C@@H](NC(=O)[C@H](C)NC(=O)[C@H](Cc1c[nH]c2ccccc12)NC(=O)[C@H](CCC(N)=O)NC(=O)[C@H](CC(N)=O)NC(=O)CNC(=O)[C@H](CC(C)C)NC(=O)[C@H](CCCN=C(N)N)NC(=O)[C@H](CCC(N)=O)NC(=O)[C@@H]1CCC(=O)N1)C(C)C [[Leu¹³Ψ(CH₂-NH)Leu¹⁴]BBS, reference compound] ([pGlu]QRLGNQWAVGH-X2)
IC50 (bombesin receptors): 214 ± 30 nM

Glp-Gln-Arg-Leu-Gly-Asn-Gln-Trp-Ala-Val-Gly-His-Leu-Met-NH₂ [BBS, reference compound]
MINIMAL ACTIVE DOSE [1]: 3 nM | FOLD INCREASE OVER BASAL VALUE ([2]; 5nM): 3.0±1 | ID₅₀ (bombesin receptors; [3]): 12.6 ± 3.8 nM

Spantide [reference compound]
MINIMAL ACTIVE DOSE [1]: > 10000 nM | IC50 (bombesin receptors; [4]): 11100 nM
